Measurements from patent US5326776A, “Angiotensin II receptor antagonists” (Abbott Laboratories, priority 1993, dated 1994).

Target: T1, angiotensin II receptor (Oryctolagus cuniculus, UniProt P34976)
T1 construct: Main abdominal aortas were removed and placed in Krebs-Henseleit buffer at room temperature; from tissue; host or cells: main abdominal aorta rings (3 mm) of female New Zealand White rabbits
T1 sequence (P34976 1-359): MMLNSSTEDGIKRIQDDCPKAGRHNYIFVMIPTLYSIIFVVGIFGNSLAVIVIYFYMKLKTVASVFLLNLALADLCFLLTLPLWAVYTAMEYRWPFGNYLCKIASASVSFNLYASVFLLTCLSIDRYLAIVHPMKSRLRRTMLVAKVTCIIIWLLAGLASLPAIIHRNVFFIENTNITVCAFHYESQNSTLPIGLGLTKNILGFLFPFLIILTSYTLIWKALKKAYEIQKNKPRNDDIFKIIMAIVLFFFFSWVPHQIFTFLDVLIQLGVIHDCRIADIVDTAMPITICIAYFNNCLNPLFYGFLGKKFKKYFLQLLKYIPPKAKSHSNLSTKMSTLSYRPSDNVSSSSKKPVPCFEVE
Assay: Antagonism of contraction of rabbit aorta (angiotensin II functional assay, isolated rabbit aorta, pA2)
Parameters: species or system rabbit (female New Zealand White)
Settings: angiotensin II as agonist, 30 minutes incubation with antagonist, Schild analysis, negative logarithm of [A]2
Source text: ANGIOTENSIN II FUNCTIONAL ASSAY: Antagonism of Contraction of Rabbit Aorta
The protocol reported by A. T Chiu and P. Timmermans (P. C. Wong, et al. Hypertension, 13, 489-497 (1989)) was followed with a few modifications. Female New Zealand White rabbits weighing 2-5 kg were sedated with carbon dioxide and then sacrificed. Main abdominal aortas were removed and placed in Krebs-Henseleit buffer at room temperature. […]
______________________________________
Buffer Component mM Concentration
potassium dihydrogen phosphate
sodium bicarbonate 20.00
EDTA* disodium calcium salt
*EDTA = ethylenediamine tetraacetic acid
The buffer contained no cocaine, propanolol or steroid.
The pH of the buffer was 7.40 at 37° C. when saturated with 5%
carbon dioxide/95% oxygen.
The tissues were cleaned of extraneous connective tissue, cut into 3 mm rings, and suspended within a 10 mL tissue bath. All dilutions of peptide preparations were made with 0.3% aqueous BSA. The tissues were primed with 55 mM potassium chloride. Tissues were pre-loaded with 1 g of tension. Tension was recorded on a model 7 Grass polygraph using FT03 transducers. At the end of the equilibrium period, a control cumulative concentration-contractile response curve for angiotensin II (A II: 1×10^-10 -10^-8 M) was obtained. The tissue was washed several times until the baseline was reached. Forty five minutes later, test compound (antagonist) was added and the tissue was incubated for 30 minutes. The concentration-response curve for A II was then repeated in the presence of the test compound. One dose of antagonist was tested per tissue only. For single dose shift experiments a dose of 1 mM of test compound was used, for a full pA2 experiment multiple doses were used depending upon the potency of the antagonist.
All responses to the control agonist were calculated as a percentage of the maximum response. These points in duplicate were plotted and analyzed according to standard Schild analysis (H. O. Schild, British J Pharmacology and Chemotherapy, 2, 189-206 (1947). The pA2 values calculated for the compounds of the invention are shown in Table 6. The pA2 value is the negative logarithm of the [A]2 value. [A]2 is the concentration of antagonist which necessitates doubling the agonist concentration in order to achieve the agonist effect which was measured in the absence of antagonist.
The pA2 value, therefore, is a measure of the effectiveness of the compound as an antagonist.

First: CCCCN(Cc1ccc(-c2ccccc2-c2nnn[nH]2)cc1)c1nncs1 [Example 12, 2-{N-Butyl-N-[(2'-[1H-tetrazol-5-yl]biphenyl-4-yl)methyl]amino}-1,3,4-thiadiazole]
Second: CCCCN(Cc1ccc(-c2ccccc2-c2nnn[nH]2)cc1)c1nnc(C(=O)OCC)s1 [Example 11, Ethyl 2-{N-Butyl-N-[(2'-[1H-tetrazol-5-yl]biphenyl-4-yl)methyl]amino}-1,3,4-thiadiazole-5-carboxylate]
The Kb of the first is 6.8-fold higher: 20 nM for the first, 2.95 nM for the second.

Compared with `CCCCN(Cc1ccc(-c2ccccc2-c2nnn[nH]2)cc1)c1nc(SC)n(C)c1C(=O)OCC` [Example 1, Ethyl 4-{N-butyl-N-[(2'-[1H-tetrazol-5-yl]biphenyl-4-yl)methyl]amino}-1-methyl-2-(methylthio)imidazole-5-carboxylate], `CCCCN(Cc1ccc(-c2ccccc2-c2nnn[nH]2)cc1)c1snnc1C(=O)OCC` [Example 9, Ethyl 5-{N-butyl-N-[(2'-[1H-tetrazol-5-yl]biphenyl-4-yl)methyl]amino}-1,2,3-thiadiazole-4-carboxylate] is 6.3-fold lower in Kb: 105 nM for the first, 16.6 nM for the second.

`CCCCN(Cc1ccc(-c2ccccc2-c2nn[nH]n2)cc1)c1snnc1C(=O)O` [Example 10, 5-[N-Butyl-N-[[2'-(1H-tetrazol-5-yl)biphenyl-4-yl]methyl]amino]-1,2,3-thiadiazole-4-carboxylic acid] and `CCCCN(Cc1ccc(-c2ccccc2-c2nn[nH]n2)cc1)c1scnc1C(=O)O` [Example 3, 5-{N-Butyl-N-[(2'-[1H-tetrazol-5-yl]biphenyl-4-yl)methyl]amino}thiazole-4-carboxylic acid] are within 1.5-fold of each other in Kb: 4.37 nM for the first, 6.31 nM for the second.

Going from `CCCN(Cc1ccc(-c2ccccc2-c2nn[nH]n2)cc1)c1nc(C)c(C(=O)O)s1` [Example 29, 4-Methyl-2-{N-propyl-N-[(2'-[1H-tetrazol-5-yl]biphenyl-4-yl)methyl]amino}thiazole-5-carboxylic acid] to `CCCc1nc(N(CCC)Cc2ccc(-c3ccccc3-c3nn[nH]n3)cc2)sc1C(=O)O` [Example 31, 2-{N-Propyl-N-[(2'-[1H-tetrazol-5-yl]biphenyl-4-yl)methyl]amino}thiazole-4-propyl-5-carboxylic acid], the Kb rises from 2.34 nM to 37.2 nM (16-fold).

First: CCCCN(Cc1ccc(-c2ccccc2-c2nn[nH]n2)cc1)c1cn(CC)cn1 [Example 6, 4-{N-Butyl-N-[(2'-[1H-tetrazol-5-yl]biphenyl-4-yl)methyl]amino}-1-(N-ethyl)imidazole]
Second: CCCCN(Cc1ccc(-c2ccccc2-c2nn[nH]n2)cc1)c1ncn(CC)c1C(=O)OC(C)(C)C [Example 5, tert-Butyl 4-{N-butyl-N-[(2'-[1H-tetrazol-5-yl]biphenyl-4-yl)methyl]amino}-1-(N-ethyl)imidazole-5-carboxylate]
The Kb of the first is 11-fold lower: 7.59 nM for the first, 87.1 nM for the second.

Going from `CCCN(Cc1ccc(-c2ccccc2-c2nn[nH]n2)cc1)c1nc(C(F)(F)F)c(C(=O)O)s1` [Example 30, 2-{N-Propyl-N-[(2'-[1H-tetrazol-5-yl]biphenyl-4-yl)methyl]amino}thiazole-4-trifluoromethyl-5-carboxylic acid] to `CCCN(Cc1ccc(-c2ccccc2-c2nn[nH]n2)cc1)c1ncc(C(=O)O)s1` [Example 28, 2-{N-Propyl-N-[(2'-[1H-tetrazol-5-yl]biphenyl-4-yl)methyl]amino}thiazole-5-carboxylic acid], the Kb falls from 27.5 nM to 13.5 nM (2-fold).

Going from `CCCN(Cc1ccc(-c2ccccc2-c2nn[nH]n2)cc1)c1nn(C)cc1C(=O)O` [Example 14, 1-Methyl-3-{N-propyl-N-[(2'-[1H-tetrazol-5-yl]biphenyl-4-yl)methyl]amino}pyrazole-4-carboxylic acid] to `CCCCN(Cc1ccc(-c2ccccc2-c2nn[nH]n2)cc1)c1ncc(C(=O)O)s1` [Example 27, 2-{N-Butyl-N-[(2'-[1H-tetrazol-5-yl]biphenyl-4-yl)methyl]amino}thiazole-5-carboxylic acid], the Kb falls from 11.5 nM to 1.66 nM (6.9-fold).

Test system: angiotensin II
Assay: not given
Settings: background statement; cited from earlier work

In the case of `CNCC(=O)N[C@@H](CCCN=C(N)N)C(=O)N[C@H](C(=O)N[C@@H](Cc1ccc(O)cc1)C(=O)N[C@H](C(=O)N[C@@H](Cc1cnc[nH]1)C(=O)N1CCC[C@H]1C(=O)N[C@@H](C)C(=O)O)C(C)C)C(C)C` [saralasin, [Sar^1,Ala^8] angiotensin II], the “antagonist of the actions of angiotensin II” value is listed as “potent antagonist of the actions of angiotensin II”.

Test system: angiotensin receptor
Assay: not given
Settings: in vivo; cited from earlier work

In the case of `CNCC(=O)N[C@@H](CCCN=C(N)N)C(=O)N[C@H](C(=O)N[C@@H](Cc1ccc(O)cc1)C(=O)N[C@H](C(=O)N[C@@H](Cc1cnc[nH]1)C(=O)N1CCC[C@H]1C(=O)N[C@@H](C)C(=O)O)C(C)C)C(C)C` [saralasin, [Sar^1,Ala^8] angiotensin II], the “blood pressure after intravenous administration” value is given as “initial increase in blood pressure after intravenous administration”.

Test system: not given
Assay: not given
Settings: peptide; cited from earlier work

For `CNCC(=O)N[C@@H](CCCN=C(N)N)C(=O)N[C@H](C(=O)N[C@@H](Cc1ccc(O)cc1)C(=O)N[C@H](C(=O)N[C@@H](Cc1cnc[nH]1)C(=O)N1CCC[C@H]1C(=O)N[C@@H](C)C(=O)O)C(C)C)C(C)C` [saralasin, [Sar^1,Ala^8] angiotensin II], the oral bioavailability is given as “very poor oral bioavailability”.
